# Experimental data taken from US5541183A, “Ginkgolide derivatives” (priority 1993, dated 1996).
# Like-named read-outs stand apart in the source and are kept apart here.
# Legend:
# [1] = system: Ag-induced bronchoconstriction; test: Ag-induced bronchoconstriction in the guinea pig; assay type: in vivo, guinea pig (Hartley strain); conditions: for ED50: Cavia porcellus, iv, 10 min, read-out: ID50, Ag-induced bronchoconstriction
# Protocol: Pharmacology Example 3: Ag-induced bronchoconstriction
# All experiments utilized male guinea pigs (Hartley strain), weighing 350 to 500 g. The animal was passively sensitized with rabbit anti-chicken egg albumin (1.3 mg/kg), 17-24 hrs before ovaibumin challenge. Passively sensitized animals were anesthetized with ethyl carbamate 1.5 g/kg, i.p.). An intratracheal cannula was inserted into trachea and indwelling catheters were inserted into the right carotid artery and left jugular vein. The animals were ventilated with a small animal respirator (UGO BASILE 7025, 70 breaths/min, 1 ml/stroke/100 g). To monitor dead or not, mean arterial pressure was measured continuously with a pressure transducer (Physiological Pressure Transducer, MICRON INSTRUMENT MP-15) connected to an amplifier (COULBOURN INSTRUMENT 572-25) and recorder (COULBOURN INSTRUMENT R14-18). The rate of bronchoconstriction was measured as an increase in lung overflow with a bronchospasm transducer (UGO BASILE 7020) from a side arm off the tracheal cannula, and expressed as a percentage of maximum broncoconstriction obtained by clamping off the tracheal cannular. Test compounds or vehicle (0.5% DMSO) were administered through the cannula into the jugular vein and ovalbumin (1.0 mg/kg, i.v.) was administered 10 minutes later. Bronchoconstriction response was compared to that obtained with control group treated with vehicle. Percent inhibition was calculated for each dose. If necessary, log dose-response curves were generated and the ID50 values were determined by regression analysis.
# [2] = system: PAF-induced rabbit platelet aggregation; test: PAF-induced rabbit platelet aggregation; assay type: cell-based, rabbit (New Zealand white); conditions: Oryctolagus cuniculus, read-out: IC50, inhibition of PAF-induced rabbit platelet aggregation
# Protocol: Pharmacology Example 1: PAF-induced rabbit platelet aggregation
# Blood was collected from the ear artery of a male New Zealand white rabbit and mixed with 3.8% sodium citrate in a 9:1 volume ratio. Platelet rich plasma (PRP) was obtained by centrifugation of the blood at 150 g for 10 min at room temperature. The number of platelets was adjusted to 3×10^8 platelets/ml with platelet poor plasma. Platelet aggregation was monitored by continuous recording of light transmission in a dual-channel aggregometer (Chrono-Log 560-VS) coupled with a two channel recorder (Chrono-Log 707). Stirred PRP was treated with various concentrations of the test compounds or vehicle (0.5% DMSO) for 2 min and then PAF(5×10^-9 M) was added to induce platelet aggregation.
# Inhibition values were calculated by comparing the extent of aggregation obtained in the presence of the vehicle alone (0.5% DMSO) and in the presence of a test compound. Log concentration-response curves were generated and the IC50 values were determined by regression analysis.
# Table 1 lists results from this assay for inhibition of PAF-induced rabbit platelet aggregation for illustrative examples of the compounds of this invention.
# [3] = system: PAF-induced bronchoconstriction; test: PAF-induced bronchoconstriction in the guinea pig; assay type: in vivo, guinea pig (Hartley strain); conditions: for % inhibition of PAF-induced bronchoconstriction: jugular vein, PAF 100 ng/kg i.v.
# Protocol: Pharmacology Example 2: PAF-induced bronchoconstriction
# All experiments utilized male guinea pigs (Hartley strain), weighing 350 to 450 g, that were anesthetized with ethyl carbamate (1.5 g/kg, i.p.). An intratracheal cannula was inserted into trachea and indwelling catheters were inserted into the right carotid artery and left jugular vein. The animals were ventilated with a small animal respirator (UGO BASILE 7025, 70 breaths/min, 1 ml/stroke/100 g). To monitor dead or not, mean arterial pressure was measured continuously with a pressure transducer (Physiological Pressure Transducer, MICRON INSTRUMENT MP-15) connected to an amplifier (COULBOURN INSTRUMENT 572-25) and recorder (COULBOURN INSTRUMENT R14-18). The rate of bronchoconstriction was measured as an increase in lung overflow with a bronchospasm transducer (UGO BASILE 7020) from a side arm off the tracheal cannula, and expressed as a percentage of maximum bronchoconstriction obtained by clamping off the tracheal cannula. Test compounds or vehicle (0.5% DMSO) were administered through the cannula into the jugular vein and PAF (100 ng/kg, i.v.) was administered. Bronchoconstriction response was compared to that obtained with control group treated with vehicle. Percent inhibition was calculated for each dose. Log dose-response curves were generated and the ID50 values were determined by regression analysis, and the results are presented in Table 2.
# Table 2: Results for inhibition of PAF-induced bronchoconstriction in the guinea pig.
# bronchial eosinophilia = test: aeroallergen-induced bronchial infiltration of eosinophils in the bronchoalveolar lavage fluid; assay type: in vivo, guinea pig (Hartley strain); conditions: 30 mg/kg p.o., + 4h after aeroallergen challenge
# Protocol: Pharmacology Example 4: The aeroallergen-induced bronchial infiltration of eosinophils in the bronchoalveolar lavage fluid.
# Adult, male Hartley-strain guinea pigs weighing 492-735 g were sensitized by intraperitoneal injection of 10 μg ovalbumin (OA) mixed in 100-mg aluminum hydroxide. And guinea pigs were pretreated with pyrilamine (1.0 mg/kg) intraperitoneally 30 min. before aeroallergen challenge. Individual guinea pigs were placed in a two-liter glass chamber and exposed to a five aerosol of OA solution (0.5 mg/ml in saline containing 0.02% antifoal emulsion for a period of 10 min.).
# 4 hours after aero allergen challenge, the guinea pigs received either vehicle or compounds suspended in 1% acacia by oral garage.
# 24 hours after aero allergen challenge, the animals were euthanized with an i.p. overdose of pentobarbital sodium (100 mg/kg). The abdominal cavity was opened, and the animal was exsaguinated by cutting the abdominal aorta. A midline incision was made through the rib cage, exposing the heart and lungs.
# The trachea was cannulated with an 18-gauge stainless steel feeding tube; 20 ml/kg of prewarmed (37° C.) physiological saline was instilled and the BALF was gently withdrawn.
# BALF (amounting to 60-80% of the saline infused) was transferred to a 10 ml vacutainer containing 0.10 ml of 15% EDTA solution and centrifugated at 2400 rpm for 10 min.
# The supernatant was poured off, and the cell pellet was suspended in physiological saline equal to the ratio of BALF recovered (ml) and physiological saline instilled in the lungs (ml), multiplied by two.
# The eosinophils in BALF were counted by Unopette Test 5877.
# The mean numbers of eosinophils±SEM in the BALF of compound-treated animals and corresponding control "vehicle"-treated animals were compared by Student's t-test. A P value of 0.05 or less was considered significant. Table 4 lists results from this assay for inhibition of bronchial eosinophilia for illustrative examples of this invention.
# [4] = 0.1 mg/kg, jugular vein, ovalbumin 1.0 mg/kg i.v. 10 minutes later
# [5] = 0.5 mg/kg, jugular vein, ovalbumin 1.0 mg/kg i.v. 10 minutes later
# [6] = 1.0 mg/kg, jugular vein, ovalbumin 1.0 mg/kg i.v. 10 minutes later
# [7] = jugular vein, ovalbumin 1.0 mg/kg i.v. 10 minutes later
smiles,measurement,setting,value
"COc1c(C)cnc(COC2C(=O)OC3OC45C(=O)OC6CC(C(C)(C)C)C32C64C(O)C2OC(=O)C(C)C25O)c1C (centres unmarked) [Example 97, 10-(4-methoxy-3,5-dimethyl-2-pyridinyl) -methoxy-Ginkgolide B]",% inhibition of Ag-induced bronchoconstriction,[1]; [4],30%
same,% inhibition of Ag-induced bronchoconstriction,[1]; [5],68%
same,% inhibition of Ag-induced bronchoconstriction,[1]; [6],100%
same,ED50,[1]; [7],0.42 mg/kg
same,IC50,"[2]; rabbit PRP, PAF 5×10^-9 M",38.9 nM
"CC1C(=O)OC2C(O)C34C5CC(C(C)(C)C)C36C(OC(=O)C6OCc3ccccn3)OC4(C(=O)O5)C12O (centres unmarked) [Example 99, 10-(2-pyridinyl)-methoxy-Ginkgolide B]",% inhibition of Ag-induced bronchoconstriction,[1]; [4],42%
same,% inhibition of Ag-induced bronchoconstriction,[1]; [5],73%
same,% inhibition of Ag-induced bronchoconstriction,[1]; [6],100%
same,ED50,[1],0.31 mg/kg
same,IC50,[2],30.7 nM
"Cc1cnc(COC2C(=O)OC3OC45C(=O)OC6CC(C(C)(C)C)C32C64C(O)C2OC(=O)C(C)C25O)c(C)c1N (centres unmarked) [Example 103, 10-(3,5-dimethyl-4-amino-2-pyridinyl)-methoxy-Ginkgolide B]",% inhibition of Ag-induced bronchoconstriction,[1]; [4],10%
same,% inhibition of Ag-induced bronchoconstriction,[1]; [5],62%
same,% inhibition of Ag-induced bronchoconstriction,[1]; [6],97%
same,ED50,[1]; [7],0.48 mg/kg
same,IC50,"[2]; rabbit PRP, PAF 5×10^-9 M",87.7 nM
"CC1C(=O)OC2C(O)C34C5CC(C(C)(C)C)C36C(OC(=O)C6OCc3ccc(Cl)nc3)OC4(C(=O)O5)C12O (centres unmarked) [Example 107, 10-(6-chloro-3-pyridinyl)-methoxy-Ginkgolide B]",IC50,"[2]; rabbit PRP, PAF 5×10^-9 M",157 nM
"CC1C(=O)OC2C(O)C34C5CC(C(C)(C)C)C36C(OC(=O)C6OCc3cccnc3)OC4(C(=O)O5)C12O (centres unmarked) [Example 108, 10-(3-pyridinyl)-methoxy-Ginkgolide B]",IC50,"[2]; rabbit PRP, PAF 5×10^-9 M",134 nM
"CC1C(=O)OC2C(O)C34C5CC(C(C)(C)C)C36C(OC(=O)C6OCc3ccncc3)OC4(C(=O)O5)C12O (centres unmarked) [Example 109, 10-(4-pyridinyl)-methoxy-Ginkgolide B]",IC50,"[2]; rabbit PRP, PAF 5×10^-9 M",122 nM
CCOc1ccnc(COC2C(=O)OC3OC45C(=O)OC6CC(C(C)(C)C)C32C64C(O)C2OC(=O)C(C)C25O)c1 (centres unmarked) [Example 110],IC50,"[2]; rabbit PRP, PAF 5×10^-9 M",157 nM
"CC1C(=O)OC2C(O)C34C5CC(C(C)(C)C)C36C(OC(=O)C6OCc3cc([N+](=O)[O-])ccn3)OC4(C(=O)O5)C12O (centres unmarked) [Example 111, 10-(4-nitro-2-myridinyl)-methoxy Ginkgolide B]",IC50,"[2]; rabbit PRP, PAF 5×10^-9 M",107 nM
CCCOc1ccc(C)nc1COC1C(=O)OC2OC34C(=O)OC5CC(C(C)(C)C)C21C53C(O)C1OC(=O)C(C)C14O (centres unmarked) [Example 112],IC50,"[2]; rabbit PRP, PAF 5×10^-9 M",124 nM
"CC1C(=O)OC2C(O)C34C5CC(C(C)(C)C)C36C(OC(=O)C6OCc3cc(NO)ccn3)OC4(C(=O)O5)C12O (centres unmarked) [Example 113, 10-(2-(4-hydroxyaminopyridinyl)-methoxy)-Ginkgolide B]",IC50,"[2]; rabbit PRP, PAF 5×10^-9 M",111 nM
COCCOCOc1ccc(COC2C(=O)OC3OC45C(=O)OC6CC(C(C)(C)C)C32C64C(O)C2OC(=O)C(C)C25O)nc1 (centres unmarked) [Example 114],IC50,[2],139 nM
"CC1C(=O)OC2C(O)C34C5CC(C(C)(C)C)C36C(OC(=O)C6OCCBr)OC4(C(=O)O5)C12O (centres unmarked) [Example 116, 10-(2'-bromoethoxy)-Ginkgolide B]",IC50,"[2]; rabbit PRP, PAF 5×10^-9 M",113 nM
"CC1C(=O)OC2C(O)C34C5CC(C(C)(C)C)C36C(OC(=O)C6OCCI)OC4(C(=O)O5)C12O (centres unmarked) [Example 117, 10-(2'-iodoethoxy)-Ginkgolide B]",IC50,[2],53.4 nM
"CC1C(=O)OC2C(O)C34C5CC(C(C)(C)C)C36C(OC(=O)C6OCCN3CCCCC3)OC4(C(=O)O5)C12O (centres unmarked) [Example 118, 10-(2'-(1""-piperidinyl)-ethoxy)-Ginkgolide B]",IC50,"[2]; rabbit PRP, PAF 5×10^-9 M",47.1 nM
"CC1C(=O)OC2C(O)C34C5CC(C(C)(C)C)C36C(OC(=O)C6OCCN3CCOCC3)OC4(C(=O)O5)C12O (centres unmarked) [Example 119, 10-(2'-(1""-morpholinyl)-ethoxy)-Ginkgolide B]",IC50,"[2]; rabbit PRP, PAF 5×10^-9 M",54.1 nM
"CC1C(=O)OC2C(O)C34C5CC(C(C)(C)C)C36C(OC(=O)C6OCCn3cncn3)OC4(C(=O)O5)C12O (centres unmarked) [Example 120, 10-(2'-(1""-(1"",2"",4""-triazolyl)-ethoxy))-Ginkgolide B]",IC50,"[2]; rabbit PRP, PAF 5×10^-9 M",62.1 nM
"CC1C(=O)OC2C(O)C34C5CC(C(C)(C)C)C36C(OC(=O)C6OCCN3CCNCC3)OC4(C(=O)O5)C12O (centres unmarked) [Example 121, 10-(2'-(1""-piperazinyl)-ethoxy)-Ginkgolide B]",IC50,"[2]; rabbit PRP, PAF 5×10^-9 M",57.1 nM
"CC1C(=O)OC2C(O)C34C5CC(C(C)(C)C)C36C(OC(=O)C6OCCN3CCCC3)OC4(C(=O)O5)C12O (centres unmarked) [Example 122, 10-(2'-(1""-pyrrolidinyl)-ethoxy)-Ginkgolide B]",IC50,"[2]; rabbit PRP, PAF 5×10^-9 M",56.1 nM
"CC1C(=O)OC2C(O)C34C5CC(C(C)(C)C)C36C(OC(=O)C6O)OC4(C(=O)O5)C12O (centres unmarked) [Ginkgolide B, reference compound]",% inhibition of Ag-induced bronchoconstriction,[1]; [4],10%
same,% inhibition of Ag-induced bronchoconstriction,[1]; [5],42%
same,% inhibition of Ag-induced bronchoconstriction,[1]; [6],82%
same,ED50,[1]; [7],0.83 mg/kg
same,% inhibition of PAF-induced bronchoconstriction,[3]; 0.50 mg/kg,38%
same,% inhibition of PAF-induced bronchoconstriction,[3]; 1.00 mg/kg,64%
same,% inhibition of PAF-induced bronchoconstriction,[3]; 2.00 mg/kg,100%
same,ED50,"[3]; Cavia porcellus, iv, read-out: ID50, PAF-induced bronchoconstriction",0.6 mg/kg
same,% Inhibition of bronchial eosinophilia,bronchial eosinophilia; at 24 hours,0%
same,Eosinophils in BALF (Mean ± SEM),"bronchial eosinophilia; counted at 24 hours, vehicle 927 ± 131",1148 ± 305 10^3 cells/m1 BALF
same,IC50,"[2]; rabbit PRP, PAF 5×10^-9 M",258 nM
